Values of other authors as cited in patent US20240165053A1, “Topical Medicament for Use in Treatment of Anorectal Inflammation” (priority 2022, published 2024).

Test system: swollen hemorrhoids

## OC[C@H]1O[C@@](CO)(O[C@H]2O[C@H](CO)[C@@H](O)[C@H](O)[C@H]2O)[C@@H](O)[C@@H]1O [granulated sugar, Sucrose]
Topical application on prolapsed hemorrhoids
  time of application after which the difference is noticeable with the naked eye: 10 min
Topical application, medical studies
  edema reduction of swollen hemorrhoids: immediate edema reduction
